In US6207399A, “Methods of determining endogenous thrombin potential (ETP) and thrombin substrates for use in said methods” (Hemker; Hendrik Coenraad, priority 1995, dated 2001):
Values belong to the compound of their own block, whether it stands above or below them. Peptide text beside a SMILES is read from it. * marks the point of attachment. pNA = O=[N+]([O-])c1ccc(N*)cc1

Key:
factor Xa = biological target: T1, factor Xa (Homo sapiens, UniProt P00742); assay: Kinetic parameters of hydrolysis of the substrates by factor Xa in buffer A at 37° C. (Example 4, Table 3); type: biochemical; details: buffer A, 37° C., 50 nM factor Xa
T1 construct: human factor Xa samples; gift of Dr. T. Lindhout (University of Limburg, Maastricht)
Protocol: (§1) Kinetic parameters: The hydrolysis experiments were run in buffer A at 37° C. The liberation of p-nitroaniline was monitored at 405 nm in a dual wavelength (405-546 nm) spectrophotometer made in our workshop, using a personal computer for data recording. In a polystyrene microcuvette (total volume 500 μL), buffer A and substrate solution were added to obtain a final substrate concentration between 200 to 2000 μM. After 5 min of incubation at 37° C., enzyme solution was added to achieve a final concentration between 0.5 to 50 nM. The measurement was carried out at 37° C. in a thermostated cuvette-holder. The Michaelis constant (Km) and the catalytic constant (kcat) were obtained by measuring the initial reaction velocities at different substrate concentrations. The data obtained were fitted by linear regression on the Michaelis-Menten equation.
(§2) Kinetic parameters: The Km and kcat values for each substrate were determined at an enzyme concentration of 0.5-50 nM (thrombin) and 50 nM factor Xa. From the initial reaction velocities, measured for at least six substrate concentrations between 200 and 2000 μM, the Km and kcat values were calculated by linear regression on the Michaelis-Menten curve. Table 3 gives an overview of the kinetic parameters of the different substrates hydrolyzed by thrombin and by factor Xa in buffer A.

[1] = tested on: thrombin generation in tissue factor triggered plasma; assay: Manual determination of thrombin generation in plasma (subsampling method) and calculated prothrombinase activity; type: biochemical, human; details: for influence on the prothrombinase complex / coagulation cascade: calculated from decay constants and manual thrombin generation curves
Protocol: Manual determination of thrombin generation in plasma: Extrinsic pathway: To 480 μL defibrinated plasma were added: 172 μL buffer A which contains the substrate at concentrations between 0 to 2000 μM and 20 μL of a 54 μM phospholipid solution (final concentration: 1.5 μM). After incubation of 4 min at 37° C., 24 μL tissue factor (undiluted) was added. Thrombin formation started at zero time by adding 24 μL of a 0.5 M CaCl2 solution (final concentration: 16.67 mM). At regular time intervals of 12 s samples of 10 μL were subsampled as described above. From the amidolytic activities thus obtained, the thrombin generation curve can be drawn. […] Intrinsic pathway: To 480 μL defibrinated plasma were added: 168 μL buffer A which contains the substrate at concentrations between 0 to 1000 μM and 48 μL Actin FS (undiluted). This mixture was intensively mixed and incubated for 4 min at 37° C. Thrombin generation was started at zero time by adding 24 μL of a 0.5 M CaCl2 solution (final concentration: 16.67 mM).
Influence of the substrate on the prothrombinase-complex: With the obtained decay constants and from the curves obtained by the subsampling method we calculated the course of prothrombin conversion and the course of prothrombinase concentration.
Manual determination of thrombin generation in plasma: Extrinsic pathway: To 480 μL defibrinated plasma were added: 172 μL buffer A which contained the substrate at concentrations between 0 to 2000 μM and 20 μL of a 54 μM phospholipid solution (final concentration: 1.5 μM). After incubation for 4 min at 37° C., 24 μL tissue factor (undiluted) was added. Thrombin formation started at zero time by adding 24 μL of a 0.5 M CaCl2 solution (final concentration: 16.67 mM). At regular time intervals of 12 s samples of 10 μL were subsampled as described above. From the amidolytic activities thus obtained, the thrombin generation curve can be drawn.
Influence of the substrate on the prothrombinase-compzex: With the obtained decay constants and from the curves obtained by the subsampling method we calculated the course of prothrombin conversion and the course of prothrombinase concentration.

euglobulin thrombin = biological target: T2, euglobulin thrombin (Homo sapiens, UniProt P00734); assay: Decay constants of thrombin in plasma; type: biochemical
T2 construct: The euglobulin thrombin fraction was prepared from defibrinated human plasma; from tissue; host or cells: defibrinated human plasma (euglobulin fraction, acid precipitation, method of Josso and Prou-Wartelle)
Protocol: (§3) To this mixture was added 10 μL of a thrombin preparation to achieve a final concentration of 100 nM. At regular time intervals (5-10 s) 10 μL samples were subsampled into 490 μL buffer B which contained 200 μM of S2238 to determine thrombin activity. After 2 min the reaction was stopped by adding 300 μL 1M citric acid. The moment of sampling and stopping were recorded on a personal computer with pushbutton-equipped pipettes. The optical density was then read at 405 nm and the obtained amidolytic activities were used to calculate the decay constants. The obtained decay constant is the sum of the decay constants of the reaction of thrombin with antithrombin III (k1) and α2 -macroglobulin (k2).
as §3, with “Decay constants of thrombin in plasma: To 120 μL defibrinated plasma was added: 50 μL of buffer A which contained the substances to be tested. To” for “To”, “was” for “was then”

thrombin = thrombin (Homo sapiens, UniProt P00734); assay: Kinetic parameters of hydrolysis of the substrates by thrombin in buffer A at 37° C. (Example 4, Table 3); type: biochemical; set-up: Pure human α-thrombin; gift of Dr. T. Lindhout (University of Limburg, Maastricht); details: buffer A, 37° C.
Protocol: as §1, §2

T1 sequence (P00742 41-179 limits assumed): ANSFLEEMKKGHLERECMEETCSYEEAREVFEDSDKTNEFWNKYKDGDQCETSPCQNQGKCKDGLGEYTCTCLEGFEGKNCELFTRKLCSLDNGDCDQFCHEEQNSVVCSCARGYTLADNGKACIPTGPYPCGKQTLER
T1 sequence (P00742 235-488 limits assumed): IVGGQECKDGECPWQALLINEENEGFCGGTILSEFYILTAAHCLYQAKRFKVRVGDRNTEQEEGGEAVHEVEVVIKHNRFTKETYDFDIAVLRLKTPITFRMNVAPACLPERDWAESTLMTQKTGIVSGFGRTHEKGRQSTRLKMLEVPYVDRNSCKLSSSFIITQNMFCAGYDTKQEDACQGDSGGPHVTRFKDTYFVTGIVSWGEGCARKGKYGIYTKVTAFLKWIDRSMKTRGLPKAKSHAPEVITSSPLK

SMILES: CC(C)[C@H](NC(=O)CNC(=O)CNC(=O)[C@@H](N)CCC(=O)O)C(=O)N[C@@H](CCCNC(=N)N)C(=O)Nc1ccc([N+](=O)[O-])cc1 [2HCl.H-Glu-Gly-Gly-Val-Arg-pNA] (H-EGGVR-pNA)
Factor Xa kcat (factor Xa): 0.42 s⁻¹
Factor Xa kcat /Km (factor Xa): 192 M/s
Km (factor Xa): 2190 µM
AA: amidolytic activity (maximum) ([1]; [S] 200 μM): 350.62 mOD/min
PT: prothrombinase concentration (maximum) ([1]; [S] 200 μM): 1086 mOD/min
T: thrombin concentration (maximum) ([1]; [S] 200 μM): 335.47 mOD/min
t: time point at which maximum of amidolytic activity is achieved ([1]; [S] 200 μM): 60 s
t: time point at which maximum of prothrombinase concentration is achieved ([1]; [S] 200 μM): 24 s
t: time point at which maximum of thrombin concentration is achieved ([1]; [S] 200 μM): 60 s
k2,M : k2 determined by the subsampling method ([1]; [S] 200 μM in plasma): 0.220 min⁻¹
AA: amidolytic activity (maximum) ([1]; [S] 500 μM): 376.42 mOD/min
PT: prothrombinase concentration (maximum) ([1]; [S] 500 μM): 1122 mOD/min
T: thrombin concentration (maximum) ([1]; [S] 500 μM): 359.48 mOD/min
t: time point at which maximum of amidolytic activity is achieved ([1]; [S] 500 μM): 60 s
t: time point at which maximum of prothrombinase concentration is achieved ([1]; [S] 500 μM): 24 s
t: time point at which maximum of thrombin concentration is achieved ([1]; [S] 500 μM): 60 s
k2,M : k2 determined by the subsampling method ([1]; [S] 500 μM in plasma): 0.192 min⁻¹
AA: amidolytic activity (maximum) ([1]; [S] 1000 μM): 409.85 mOD/min
PT: prothrombinase concentration (maximum) ([1]; [S] 1000 μM): 1149 mOD/min
T: thrombin concentration (maximum) ([1]; [S] 1000 μM): 396.23 mOD/min
t: time point at which maximum of amidolytic activity is achieved ([1]; [S] 1000 μM): 60 s
t: time point at which maximum of prothrombinase concentration is achieved ([1]; [S] 1000 μM): 24 s
t: time point at which maximum of thrombin concentration is achieved ([1]; [S] 1000 μM): 60 s
k2,M : k2 determined by the subsampling method ([1]; [S] 1000 μM in plasma): 0.169 min⁻¹
influence on the prothrombinase complex / coagulation cascade [1]: no inhibition of the prothrombinase activity
(k1,corr) = k1,corr divided by μM AT-III (euglobulin thrombin; [S] 200 μM in plasma): 20380 M⁻¹ s⁻¹
k1,corr : k1 after correcting for k2,M and 0.170 (euglobulin thrombin; [S] 200 μM in plasma): 1.769 min⁻¹
k1 : AT-III dependent decay of thrombin (euglobulin thrombin; [S] 200 μM in plasma): 1.946 min⁻¹
k2 : α2 M dependent decay of thrombin (euglobulin thrombin; [S] 200 μM in plasma): 0.213 min⁻¹
koverall (euglobulin thrombin; [S] 200 μM in plasma): 2.159 min⁻¹
t1/2 (euglobulin thrombin; [S] 200 μM in plasma): 19.26 s
(k1,corr) = k1,corr divided by μM AT-III (euglobulin thrombin; [S] 500 μM in plasma): 19150 M⁻¹ s⁻¹
k1,corr : k1 after correcting for k2,M and 0.170 (euglobulin thrombin; [S] 500 μM in plasma): 1.662 min⁻¹
k1 : AT-III dependent decay of thrombin (euglobulin thrombin; [S] 500 μM in plasma): 1.733 min⁻¹
k2 : α2 M dependent decay of thrombin (euglobulin thrombin; [S] 500 μM in plasma): 0.291 min⁻¹
koverall (euglobulin thrombin; [S] 500 μM in plasma): 2.024 min⁻¹
t1/2 (euglobulin thrombin; [S] 500 μM in plasma): 21.04 s
(k1,corr) = k1,corr divided by μM AT-III (euglobulin thrombin; [S] 1000 μM in plasma): 16400 M⁻¹ s⁻¹
k1,corr : k1 after correcting for k2,M and 0.170 (euglobulin thrombin; [S] 1000 μM in plasma): 1.427 min⁻¹
k1 : AT-III dependent decay of thrombin (euglobulin thrombin; [S] 1000 μM in plasma): 1.594 min⁻¹
k2 : α2 M dependent decay of thrombin (euglobulin thrombin; [S] 1000 μM in plasma): 0.172 min⁻¹
koverall (euglobulin thrombin; [S] 1000 μM in plasma): 1.766 min⁻¹
t1/2 (euglobulin thrombin; [S] 1000 μM in plasma): 23.56 s
Km (thrombin): 1010 µM
Thrombin kcat (thrombin): 0.55 s⁻¹
Thrombin kcat /Km (thrombin): 542 M/s

Factor Xa kcat (factor Xa): 4.69 s⁻¹
Factor Xa kcat /Km (factor Xa): 491 M/s
Km (factor Xa): 9550 µM
AA: amidolytic activity (maximum) ([1]; [S] 200 μM): 388.15 mOD/min
PT: prothrombinase concentration (maximum) ([1]; [S] 200 μM): 1119 mOD/min
T: thrombin concentration (maximum) ([1]; [S] 200 μM): 371.24 mOD/min
t: time point at which maximum of amidolytic activity is achieved ([1]; [S] 200 μM): 60 s
t: time point at which maximum of prothrombinase concentration is achieved ([1]; [S] 200 μM): 24 s
t: time point at which maximum of thrombin concentration is achieved ([1]; [S] 200 μM): 60 s
k2,M : k2 determined by the subsampling method ([1]; [S] 200 μM in plasma): 0.198 min⁻¹
AA: amidolytic activity (maximum) ([1]; [S] 500 μM): 387.15 mOD/min
PT: prothrombinase concentration (maximum) ([1]; [S] 500 μM): 1090 mOD/min
T: thrombin concentration (maximum) ([1]; [S] 500 μM): 374.80 mOD/min
t: time point at which maximum of amidolytic activity is achieved ([1]; [S] 500 μM): 60 s
t: time point at which maximum of prothrombinase concentration is achieved ([1]; [S] 500 μM): 24 s
t: time point at which maximum of thrombin concentration is achieved ([1]; [S] 500 μM): 60 s
k2,M : k2 determined by the subsampling method ([1]; [S] 500 μM in plasma): 0.178 min⁻¹
AA: amidolytic activity (maximum) ([1]; [S] 1000 μM): 456.42 mOD/min
PT: prothrombinase concentration (maximum) ([1]; [S] 1000 μM): 1346 mOD/min
T: thrombin concentration (maximum) ([1]; [S] 1000 μM): 443.82 mOD/min
t: time point at which maximum of amidolytic activity is achieved ([1]; [S] 1000 μM): 60 s
t: time point at which maximum of prothrombinase concentration is achieved ([1]; [S] 1000 μM): 24 s
t: time point at which maximum of thrombin concentration is achieved ([1]; [S] 1000 μM): 60 s
k2,M : k2 determined by the subsampling method ([1]; [S] 1000 μM in plasma): 0.144 min⁻¹
(k1,corr) = k1,corr divided by μM AT-III (euglobulin thrombin; [S] 200 μM in plasma): 18300 M⁻¹ s⁻¹
k1,corr : k1 after correcting for k2,M and 0.170 (euglobulin thrombin; [S] 200 μM in plasma): 1.590 min⁻¹
k1 : AT-III dependent decay of thrombin (euglobulin thrombin; [S] 200 μM in plasma): 1.729 min⁻¹
k2 : α2 M dependent decay of thrombin (euglobulin thrombin; [S] 200 μM in plasma): 0.229 min⁻¹
koverall (euglobulin thrombin; [S] 200 μM in plasma): 1.958 min⁻¹
t1/2 (euglobulin thrombin; [S] 200 μM in plasma): 21.24 s
(k1,corr) = k1,corr divided by μM AT-III (euglobulin thrombin; [S] 500 μM in plasma): 16600 M⁻¹ s⁻¹
k1,corr : k1 after correcting for k2,M and 0.170 (euglobulin thrombin; [S] 500 μM in plasma): 1.444 min⁻¹
k1 : AT-III dependent decay of thrombin (euglobulin thrombin; [S] 500 μM in plasma): 1.614 min⁻¹
k2 : α2 M dependent decay of thrombin (euglobulin thrombin; [S] 500 μM in plasma): 0.178 min⁻¹
koverall (euglobulin thrombin; [S] 500 μM in plasma): 1.792 min⁻¹
t1/2 (euglobulin thrombin; [S] 500 μM in plasma): 23.22 s
(k1,corr) = k1,corr divided by μM AT-III (euglobulin thrombin; [S] 1000 μM in plasma): 9100 M⁻¹ s⁻¹
k1,corr : k1 after correcting for k2,M and 0.170 (euglobulin thrombin; [S] 1000 μM in plasma): 0.790 min⁻¹
k1 : AT-III dependent decay of thrombin (euglobulin thrombin; [S] 1000 μM in plasma): 0.980 min⁻¹
k2 : α2 M dependent decay of thrombin (euglobulin thrombin; [S] 1000 μM in plasma): 0.124 min⁻¹
koverall (euglobulin thrombin; [S] 1000 μM in plasma): 1.104 min⁻¹
t1/2 (euglobulin thrombin; [S] 1000 μM in plasma): 37.70 s
Km (thrombin): 882 µM
Thrombin kcat (thrombin): 0.79 s⁻¹
Thrombin kcat /Km (thrombin): 894 M/s
SMILES: CC(C)[C@H](NC(=O)OCCS(C)(=O)=O)C(=O)N[C@@H](CCCNC(=N)N)C(=O)Nc1ccc([N+](=O)[O-])cc1.Cl [Msc-Val-Arg-pNA.HCl]
influence on the prothrombinase complex / coagulation cascade [1]: no inhibition of the prothrombinase activity
